Test results: publication PMC4753485, “Selective potentiation of 2-APB-induced activation of TRPV1–3 channels by acid” (Scientific Reports, 2016)
Several values for one entry are separate records, joined by “and”; a condition that tells them apart may be missing. Equal values may be shown once. Read-outs that look alike come from different tables or passages of the source. Blank lines part the entries; values can stand above or below the compound they belong to.

Legend:
TRPV3 [1] = biological target: T1, TRPV3 (Mus musculus, UniProt Q8K424); test: cell-based
Excerpt: (§1) Full-length cDNA for murine TRPV3 was isolated and subcloned into pIRES2-EGFP, as previously described. The wild-type rat TRPV1, TRPV2 and TRPM8 cDNAs were generously provided by Dr. Feng Qin (State University of New York at Buffalo, Buffalo). All mutations were made using either QuikChange® XL site-directed mutagenesis kit (Agilent Technologies) or the overlap-extension polymerase chain reaction (PCR) method as previously described. The resulting mutations were verified by DNA sequencing. HEK293 cells were grown in DMEM containing 4.5 mg/ml glucose, 10% heat-inactivated fetal bovine serum, 50 units/ml penicillin, and 50 μg/ml streptomycin. For electrophysiological experiments, cells were seeded in 35 mm culture dishes and transfected with the desired DNA constructs using Lipofectamine 2000 (Invitrogen) following the protocol provided by the manufacturer. Stable TRPV3 expressing cells were selected in the G418-containing medium. For intracellular Ca^2+ measurements, cells were transfected with the desired DNA constructs in the wells of 96-well plates without pre-seeding using Lipofectamine 2000 (Invitrogen) as described.

TRPV1(E600Q/T633A) = biological target: T2, TRPV1(E600Q/T633A) (Rattus norvegicus, UniProt O35433, E600Q/T633A); test: Whole-cell recordings of TRPV1(E600Q/T633A) in HEK293 cells; type: cell-based; settings: −60 mV
T2 construct: expressed in transfected cells; host or cells: HEK293
Excerpt: as §1, with “For intracellular Ca^2+ measurements, cells were transfected with the desired DNA constructs in the wells of 96-well plates without pre-seeding using Lipofectamine 2000 (Invitrogen) as described.” left out
(§2) Transfected HEK293 cells were reseeded on 12 mm round glass coverslips (Warner Instruments) one day after transfection. […] Voltage commands were made from the Patchmaster program, and the currents were recorded at 5 kHz. […] As determined by the conductance tests, the solution around a patch under study was fully controlled by the application of a solution with a flow rate of 100 μl/min or greater. […]

[2] = no reference given; cited from earlier work
TRPV1 = biological target: T3, TRPV1 (Rattus norvegicus, UniProt O35433); test: Inside-out patch recordings from TRPV1-expressing HEK293 cells; type: cell-based; settings: +60 mV
T3 construct: expressed in transfected cells; host or cells: HEK293
Excerpt: as §1, with “For intracellular Ca^2+ measurements, cells were transfected with the desired DNA constructs in the wells of 96-well plates without pre-seeding using Lipofectamine 2000 (Invitrogen) as described.” left out
as §2

mouse TRPV3 = biological target: T4, mouse TRPV3 (Mus musculus, UniProt Q8K424); test: Whole-cell recordings of TRPV3 currents in HEK293 cells; type: cell-based; settings: for EC50: EC50 of 2-APB-evoked TRPV3 whole-cell current, Vh −60 mV; for EC50 / Hill coefficient nH of 2-APB concentration-response: after full sensitization
T4 construct: Full-length cDNA for murine TRPV3 was isolated and subcloned into pIRES2-EGFP; expressed in transfected cells; host or cells: HEK293 (transient)
T4 sequence (Q8K424 1-791): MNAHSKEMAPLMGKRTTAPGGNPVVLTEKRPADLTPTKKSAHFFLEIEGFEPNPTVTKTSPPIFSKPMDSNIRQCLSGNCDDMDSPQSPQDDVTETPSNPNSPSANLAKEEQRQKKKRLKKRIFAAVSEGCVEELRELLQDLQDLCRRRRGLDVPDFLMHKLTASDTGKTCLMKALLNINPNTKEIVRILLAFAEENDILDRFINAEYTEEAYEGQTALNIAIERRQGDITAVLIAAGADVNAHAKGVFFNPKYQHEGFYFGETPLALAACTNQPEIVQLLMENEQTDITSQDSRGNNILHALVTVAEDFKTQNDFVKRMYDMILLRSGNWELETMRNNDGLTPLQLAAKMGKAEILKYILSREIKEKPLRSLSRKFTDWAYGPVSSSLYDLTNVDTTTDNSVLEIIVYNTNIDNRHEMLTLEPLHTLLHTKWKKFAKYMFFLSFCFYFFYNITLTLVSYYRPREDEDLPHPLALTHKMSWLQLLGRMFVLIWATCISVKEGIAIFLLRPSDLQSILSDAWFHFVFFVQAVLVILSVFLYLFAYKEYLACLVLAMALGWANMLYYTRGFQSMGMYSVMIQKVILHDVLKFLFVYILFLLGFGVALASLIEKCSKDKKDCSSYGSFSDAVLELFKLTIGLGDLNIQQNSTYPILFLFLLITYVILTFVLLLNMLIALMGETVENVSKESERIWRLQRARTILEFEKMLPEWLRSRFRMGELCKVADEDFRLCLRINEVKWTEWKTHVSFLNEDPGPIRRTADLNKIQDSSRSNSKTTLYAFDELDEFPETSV
Experimental: The resulting mutations were verified by DNA sequencing.
Whole-cell recordings were performed the following day. […] Camphor was purchased from Acros (New Jersey, USA).

[3] = 1H-NMR and mass spectrometry of compounds in solution; settings: 1H-NMR in PBS and mass spectrometry
Experimental: The solution NMR samples were prepared at the final concentration of 1 mM for the test compound in PBS at three different pH values (5.5, 7.4 and 8.5). […] One-dimensional (1D) ^1H NMR spectra were collected with 2-s delays using a standard Varian 1D watergate pulse sequence. Two-dimensional (2D) ^1H NMR TOCSY (mixing time 100 ms) and NOESY (mixing time 500 ms) spectra were collected using standard Varian TOCSY and NOESY pulse sequences. All spectra were processed using NMRPipe[45] with 1D ^1H spectra analyzed using ACD/NMR Processor (www.acdlabs.com) while 2D ^1H spectra analyzed using SPARKY[46]. In TOCSY, cross-peaks were potentially generated between all resonances within a spin system, while in NOESY, the integrated intensity of a given cross-peak was interpreted in terms of the distance between the two hydrogen atoms that gave rise to the peak.
The molecular mass was then measured by using positive and negative ion electrospray ionization mass spectrometry (ESI-MS, Thermo Fisher Scientific Inc., Waltham, MA).

[4] = tested on: TRPV3 linker 2–3 mutants (L508R, D512N, S518V, A520S); settings: 100 μM 2-APB; whole-cell and inside-out; after sensitization with 500 μM 2-APB
Excerpt: as §1, with “For intracellular Ca^2+ measurements, cells were transfected with the desired DNA constructs in the wells of 96-well plates without pre-seeding using Lipofectamine 2000 (Invitrogen) as described.” left out
as §2

TRPM8 = TRPM8 (Rattus norvegicus, UniProt Q8R455); test: cell-based; settings: for IC50: IC50 for inhibition of menthol-evoked TRPM8 current, 100 μM menthol
Excerpt: as §1
(§3) Transfected HEK293 cells were reseeded on 12 mm round glass coverslips (Warner Instruments) one day after transfection. Whole-cell recordings were performed the following day. Recording pipettes were pulled from borosilicate glass capillaries (Sutter or World Precision Instruments) to 2–4 MΩ when filled with internal solution containing (in mM) 140 CsCl, 2.0 MgCl2, 5 EGTA, 10 HEPES, pH 7.4. Bathing solution contained (in mM) 140 NaCl, 5 KCl, 5 EGTA, 1 MgCl2, 10 glucose and 10 HEPES, pH 7.4. Isolated cells were voltage clamped in the whole-cell mode using an EPC10 amplifier (HEKA Instruments Inc). Voltage commands were made from the Patchmaster program, and the currents were recorded at 5 kHz. […] Whole-cell recordings were typically sampled at 5 kHz and filtered at 1 kHz. The compensation of pipette series resistance and capacitance were taken by using the built-in circuitry of the amplifier (>80%) to reduce voltage errors. Exchange of external solutions was performed using a gravity-driven local perfusion system (Automate Scientific). Channel activators were diluted into the recording solution at the desired final concentrations and applied to the cell through perfusion. As determined by the conductance tests, the solution around a patch under study was fully controlled by the application of a solution with a flow rate of 100 μl/min or greater. […] The acidic solutions contained (in mM): 140 NaCl, 5 KCl, 5 EGTA, 1 MgCl2, 10 glucose, and 10 MES, with pH adjusted to desired values by NaOH. For inside-out recordings, both the pipette solution and bath solution contained (in mM) 140 NaCl, 5 KCl, 5 EGTA, 1 MgCl2, 10 HEPES, pH 7.4. Excised patches were held constantly at desired potentials while compounds were repetitively applied and washed from the bath. For recordings from HEK293 cells under acidic pH conditions, the solution also contained 50 μM amiloride as an inhibitor of the native ASIC channels. Camphor was purchased from Acros (New Jersey, USA). Diphenyl borate (DPB) was synthesized by Beijing Realchem Technology Company (Beijing, China). Other chemicals were purchased from Sigma (Sigma, St. Louis, MO). Water-insoluble reagents were dissolved in either 100% ethanol or DMSO to make stock solutions and were diluted in the bathing solution at appropriate concentrations before experiments. […] All experiments except those for heat activation were performed at room temperature (22–24 °C).

TRPV2 = TRPV2 (Rattus norvegicus, UniProt Q9WUD2); test: cell-based; settings: for EC50: EC50 of 2-APB-evoked TRPV2 whole-cell current
Excerpt: as §1, §3

TRPV3 [5] = biological target: T1, TRPV3; settings: 32 °C
Excerpt: as §1

Sequence of TRPM8 (Q8R455 whole entry): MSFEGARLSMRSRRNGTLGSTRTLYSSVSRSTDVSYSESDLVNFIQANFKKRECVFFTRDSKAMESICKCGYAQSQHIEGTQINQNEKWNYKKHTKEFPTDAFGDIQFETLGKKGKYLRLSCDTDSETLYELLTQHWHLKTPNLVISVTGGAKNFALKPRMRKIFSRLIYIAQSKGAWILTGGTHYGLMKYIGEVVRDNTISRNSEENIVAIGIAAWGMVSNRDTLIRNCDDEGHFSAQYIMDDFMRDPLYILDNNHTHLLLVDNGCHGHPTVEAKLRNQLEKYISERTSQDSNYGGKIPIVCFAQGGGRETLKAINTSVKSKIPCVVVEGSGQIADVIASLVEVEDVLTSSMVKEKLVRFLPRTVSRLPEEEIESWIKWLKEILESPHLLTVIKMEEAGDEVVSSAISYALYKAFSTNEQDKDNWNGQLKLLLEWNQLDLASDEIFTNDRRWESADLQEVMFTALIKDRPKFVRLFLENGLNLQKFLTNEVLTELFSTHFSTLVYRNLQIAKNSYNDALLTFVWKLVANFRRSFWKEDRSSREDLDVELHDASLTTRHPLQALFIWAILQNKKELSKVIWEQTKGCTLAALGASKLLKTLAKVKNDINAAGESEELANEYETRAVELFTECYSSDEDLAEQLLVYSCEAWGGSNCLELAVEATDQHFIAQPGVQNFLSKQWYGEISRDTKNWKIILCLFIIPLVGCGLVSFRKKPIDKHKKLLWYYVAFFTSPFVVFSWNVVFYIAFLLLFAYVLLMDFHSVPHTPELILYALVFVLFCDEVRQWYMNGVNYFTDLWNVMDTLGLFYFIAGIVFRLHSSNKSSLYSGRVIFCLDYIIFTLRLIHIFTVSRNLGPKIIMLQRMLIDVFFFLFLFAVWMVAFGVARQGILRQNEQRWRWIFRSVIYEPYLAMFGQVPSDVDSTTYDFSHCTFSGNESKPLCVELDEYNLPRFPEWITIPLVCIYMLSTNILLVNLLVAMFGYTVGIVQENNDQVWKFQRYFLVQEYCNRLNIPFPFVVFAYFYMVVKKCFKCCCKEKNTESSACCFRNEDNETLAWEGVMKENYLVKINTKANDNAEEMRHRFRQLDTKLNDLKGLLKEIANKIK
Sequence of TRPV2 (Q9WUD2 whole entry): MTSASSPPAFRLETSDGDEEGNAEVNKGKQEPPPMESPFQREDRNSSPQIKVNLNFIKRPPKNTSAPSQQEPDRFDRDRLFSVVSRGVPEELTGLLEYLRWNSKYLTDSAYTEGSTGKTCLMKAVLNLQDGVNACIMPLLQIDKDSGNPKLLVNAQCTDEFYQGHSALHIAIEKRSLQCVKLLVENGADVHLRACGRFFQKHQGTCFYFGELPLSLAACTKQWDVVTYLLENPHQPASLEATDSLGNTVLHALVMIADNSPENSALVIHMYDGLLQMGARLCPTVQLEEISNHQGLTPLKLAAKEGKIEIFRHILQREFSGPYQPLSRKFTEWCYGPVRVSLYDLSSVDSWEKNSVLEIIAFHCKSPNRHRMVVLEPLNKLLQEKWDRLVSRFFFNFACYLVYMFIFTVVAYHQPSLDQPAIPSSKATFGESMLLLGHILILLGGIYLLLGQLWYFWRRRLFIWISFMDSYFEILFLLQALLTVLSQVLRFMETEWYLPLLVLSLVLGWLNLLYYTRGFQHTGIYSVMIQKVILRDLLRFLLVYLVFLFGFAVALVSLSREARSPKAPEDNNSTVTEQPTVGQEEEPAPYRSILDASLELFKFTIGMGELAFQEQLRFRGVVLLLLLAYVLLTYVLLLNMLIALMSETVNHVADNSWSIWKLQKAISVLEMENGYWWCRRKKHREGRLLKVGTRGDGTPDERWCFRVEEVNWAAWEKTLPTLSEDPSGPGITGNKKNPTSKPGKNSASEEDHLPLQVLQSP
T3 sequence (O35433 whole entry): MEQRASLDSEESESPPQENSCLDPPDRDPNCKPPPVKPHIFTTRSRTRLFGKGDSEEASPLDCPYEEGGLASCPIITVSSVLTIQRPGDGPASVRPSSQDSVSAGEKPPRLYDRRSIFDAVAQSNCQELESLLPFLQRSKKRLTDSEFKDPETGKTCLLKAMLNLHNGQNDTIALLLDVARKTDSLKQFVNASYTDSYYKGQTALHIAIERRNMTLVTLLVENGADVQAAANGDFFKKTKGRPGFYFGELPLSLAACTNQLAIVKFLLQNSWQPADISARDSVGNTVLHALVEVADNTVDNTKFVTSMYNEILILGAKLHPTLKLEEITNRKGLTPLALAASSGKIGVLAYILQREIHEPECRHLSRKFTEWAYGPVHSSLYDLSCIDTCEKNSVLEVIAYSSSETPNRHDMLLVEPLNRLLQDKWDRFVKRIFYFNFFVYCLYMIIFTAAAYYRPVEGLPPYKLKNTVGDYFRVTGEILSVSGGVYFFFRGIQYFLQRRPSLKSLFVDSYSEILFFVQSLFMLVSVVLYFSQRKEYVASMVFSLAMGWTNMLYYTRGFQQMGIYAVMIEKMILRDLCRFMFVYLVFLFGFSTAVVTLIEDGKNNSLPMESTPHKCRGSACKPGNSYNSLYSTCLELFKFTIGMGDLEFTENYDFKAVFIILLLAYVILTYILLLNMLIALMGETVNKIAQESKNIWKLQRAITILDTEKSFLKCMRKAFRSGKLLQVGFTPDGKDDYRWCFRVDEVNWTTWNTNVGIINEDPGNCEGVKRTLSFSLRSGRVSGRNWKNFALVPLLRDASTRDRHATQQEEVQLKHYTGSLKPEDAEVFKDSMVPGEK
T2 sequence (O35433 whole entry E600Q/T633A): as the sequence (O35433 whole entry) above, with E600Q, T633A counted along it

EC50 (TRPV3 [1]): 8.8 ± 1.5 µM | Drop of cytosolic pH (TRPV3 [1]; 300 μM 2-APB): ~ 0.35 pH unit | Effect of lowering extracellular pH to 5.5 on response (TRPV1(E600Q/T633A); 10 μM 2-APB): strongly enhanced | Increase of peak current at pH 5.5 over pH 7.4, cytoplasmic side (TRPV1; 100 μM 2-APB): more than 2 fold | Stability in solution [3]: easily hydrolyzed to DPB | inhibition at 10 µM (TRPM8; HEK293, pH 5.5, read-out: Inhibition of menthol-evoked TRPM8 current): 84 ± 2% | inhibition at 10 µM (TRPM8; HEK293, pH 6, read-out: Inhibition of menthol-evoked TRPM8 current): 69 ± 3% | inhibition at 10 µM (TRPM8; HEK293, pH 7.4, read-out: Inhibition of menthol-evoked TRPM8 current): 24 ± 2% | IC50 (TRPM8; pH 5.5): 3.1 µM and 3.07 µM | IC50 (TRPM8; pH 7.4): 20.5 µM | Hill coefficient nH of inhibition curve (TRPM8; pH 5.5): 1.5 ± 0.1 and 1.49 ± 0.08 | Hill coefficient nH of inhibition curve (TRPM8; pH 7.4): 1.4 ± 0.3 and 1.41 ± 0.28 | EC50 (TRPV2; pH 5.5): 112 ± 1.2 µM | EC50 (TRPV2; pH 7.4): 522 ± 10.2 µM | Hill coefficient nH of 2-APB concentration-response (TRPV2; pH 5.5): 5.2 ± 0.3 and 5.26 ± 0.35 | Hill coefficient nH of 2-APB concentration-response (TRPV2; pH 7.4): 4.3 ± 0.3 and 4.34 ± 0.35 | Effect of reducing extracellular pH to 5.5 on Ca2+ response (TRPV3 [5]; 166 μM 2-APB): not further increased | Effect of reducing extracellular pH to 5.5 on Fluo-4 fluorescence intensity (TRPV3 [5]; low to moderate 2-APB concentrations (6–55 μM)): markedly enhanced
SMILES: NCCOB(c1ccccc1)c1ccccc1 [2-APB, 2-aminoethoxydiphenyl borate]
pKa of the amino group [2]: 9.6 | Half-maximal pH of 2-APB-activated TRPV3 currents (mouse TRPV3; 10 μM 2-APB, pH 8.5 to 4.5, after sensitization with 100 μM 2-APB): 6.70 ± 0.02 | EC50 (mouse TRPV3; pH 5.5): 3.3 µM and 3.34 µM | EC50 (mouse TRPV3; pH 7.4): 36.2 ± 2.1 µM | Hill coefficient nH of 2-APB concentration-response (mouse TRPV3; pH 5.5): 2.0 ± 0.3 and 1.98 ± 0.34 | Hill coefficient nH of 2-APB concentration-response (mouse TRPV3; pH 7.4): 1.8 ± 0.2 and 1.76 ± 0.17 | Effect of low pH (5.5) on response to 2-APB in mutant channels [4]: greatly increased

Stability in solution [3]: easily hydrolyzed to DPB
SMILES: c1ccc(B(OB(c2ccccc2)c2ccccc2)c2ccccc2)cc1 [DPBA, diphenylboronic anhydride]
Increase of evoked current by acid (pH 5.5) (mouse TRPV3; 5 μM DPBA, after sensitization with 30 μM DPBA): ~ 7 fold

SMILES: OB(c1ccccc1)c1ccccc1 [DPB]
Increase of evoked current by acidic pH (5.5 versus 7.4) (mouse TRPV3; 10 μM DPB, after sensitization with 100 μM 2-APB): about 5 fold

SMILES: OC(c1ccccc1)c1ccccc1 [DPM, diphenyl methanol]
TRPV3 current elicited (mouse TRPV3; pH 7.4 (30 or 500 μM) or pH 5.5 (30 μM only), after sensitization with 100 μM 2-APB): no detectable current

SMILES: CC12CCC(CC1=O)C2(C)C (stereo not drawn) [camphor]
Effect of acid (pH 5.5) on evoked TRPV3 current (mouse TRPV3; 3 mM camphor, after sensitization with 100 μM 2-APB): slowed down the current development

Decrease of elicited current by lowering extracellular pH to 5.5 (TRPV1(E600Q/T633A); 0.01 μM capsaicin): nearly one-half | Effect of intracellular acid (pH 5.5) on evoked current (TRPV1; 0.1 μM capsaicin): did not enhance
SMILES: COc1cc(CNC(=O)CCCC/C=C/C(C)C)ccc1O [capsaicin]

SMILES: CC1CCC(C(C)C)C(O)C1 (stereo not drawn) [menthol]
inhibition at 1000 µM (mouse TRPV3; HEK293, pH 5.5, read-out: Inhibition of evoked TRPV3 current by acid (pH 5.5)): ~48%
